Values quoted from earlier work as cited in patent US8512957B2, “Toxicity typing using liver stem cells” (Vistagen Therapeutics, Inc., priority 2000, dated 2013).

Key:
[1] = known toxicity class, printed in first toxicity column (Dev = developmental)
liver = conditions: known toxicity of the drug, stated in words

Structure (SMILES) | TOXICITIES EV [1] | liver toxicity (liver)
CN(CCOc1ccc(CC2SC(=O)NC2=O)cc1)c1ccccn1 (stereo not shown) [rosiglitazone] | tc | 
Cc1c(C)c2c(c(C)c1O)CCC(C)(COc1ccc(CC3SC(=O)NC3=O)cc1)O2 (stereo not shown) [troglitazone] |  | rare but severe liver toxicity
CCC(=O)O[C@H]1[C@H](O[C@@H]2[C@@H](C)[C@H](O[C@H]3C[C@@](C)(OC)[C@@H](O)[C@H](C)O3)[C@@H](C)C(=O)O[C@H](CC)[C@@](C)(O)[C@H](O)[C@@H](C)C(=O)[C@H](C)C[C@@]2(C)O)O[C@H](C)C[C@@H]1N(C)C [erythromycin estolate] |  | known liver toxicity
CCOC(=O)C(C)(C)Oc1ccc(Cl)cc1 [clofibrate] | tc | 
